Residues, ends and D or L forms follow the SMILES beside them. No end group written: not given here. *: point of attachment. 5FAM = O=C1OC2(c3ccc(O)cc3Oc3cc(O)ccc32)c2ccc(C(=O)*)cc21
How the values were obtained:
endogenous AGO2 = molecular target: T1, endogenous AGO2 (Homo sapiens, UniProt Q9UKV8); experiment: Confocal immunofluorescence of 5′FAM-tagged peptides: cell entry and co-localization with AGO2; type: cell-based; conditions: 10 µM 5′FAM-tagged peptide
T1 construct: endogenous in cells
Text: (§1) Other general procedures not detailed above including plasmid constructions, transfection, co-immunoprecipitation, RNA extraction, quantitative real-time PCR (qRT-PCR), gene expression analysis, Western blotting, immunofluorescence (IF) staining, and immunohistochemistry staining (IHC) were described previously.

[1] = molecular target: T2, MSI1/AGO2 interaction (M-NGluc / A-CGluc) (Homo sapiens, UniProt Q9UKV8); experiment: Split Gaussia luciferase reconstitution assay of MSI1/AGO2 interaction; type: cell-based; conditions: IVIS; for reconstituted luciferase luminescence versus non-treated or CP-treated cells: tat-conjugated peptides, cisplatin-induced stress (30 µM)
T2 construct: expressed in transfected cells; pcDNA 3.1 and pCMV backbones
Text: We applied a gaussia luciferase (Gluc) system to detect protein–protein interaction between MSI1 and AOG2. We split gaussia luciferase into two fragments: the 106 a.a. N-terminus (NGluc) and the 79 a.a. C-terminus (CGluc). After polymerase chain reaction (PCR) amplification, the NGluc and CGluc were subjected to construct fusion protein with MSI1 and AGO2, respectively, in the pcDNA 3.1 and pCMV backbone. Each fusion protein contains a flexible linker (GGGGS) 2 between the protein and polypeptides of split luciferase. We stably transfected both fusion protein expression plasmids in DBTRG-05MG GBM cell line and generated a stable cell line with Hygromycin B (Sigma Aldrich Co., St. Louis, MI, USA) and G418 sulfate (Merck Co., […], Germany). We established a normalizing standard by transducing multiple reporter genes into the generated stable cell line for stably expressing green fluorescent protein (GFP), firefly luciferase (FLuc), and herpes simplex virus type I thymidine kinase (HSV1-tk) using lentivirus as previously described. For in vitro MSI1/AGO2 interaction study in cells, cell lysates were prepared with mild reporter lysis buffer (Promega Co., Madison, WI, USA) with a frozen–thaw cycle. The supernatant was then collected after centrifugation and dispensed in a 96-well black flat bottom plate. Coelenterazine (Nanolight Technologies, Ltd., Pinetop, AZ, USA), the substrate of GLuc, was firstly dissolved in methanol and diluted in reporter assay buffer (15 mM potassium phosphate, 25 mM glycylglycine, 15 mM MgSO4, 4 mM EDTA). D-luciferin sodium salt (Promega Co., Madison, WI, USA) was dissolved in sterilized water and diluted in reporter assay buffer supplemented with 2mM ATP. The bioluminescent signals were acquired by Wallac 1420 Victor2 Microplate Reader (Perkin Elmer, Waltham, MA, USA) equipped with auto-dispenser to avoid rapid decay of Gluc.

[2] = molecular target: T3, His-tagged recombinant AGO2 (Homo sapiens, UniProt Q9UKV8); experiment: Surface plasmon resonance (Biacore T200) binding of peptides to AGO2; conditions: for kon: read-out: ka (association rate constant); for koff: read-out: kd (dissociation rate constant)
Protocol: Surface Plasmon Resonance (SPR) was utilized using Biacore T200 (GE Healthcare) to study binding affinities between decoy peptides Pep#11 and Pep#26 peptides with recombinant His-tagged AGO2 protein. The recombinant His-AGO2 and MSI1 peptides were diluted in HBS-P buffer (10 mM HEPES, 150 mM NaCl and 0.005% T20, pH 7.4). To evaluate the binding affinity, recombinant His-AGO2 was immobilized on a CM5 sensor chip (GE Healthcare, BR100012) via amine coupling (~7000 RU) for 3600 s at a rate of 5 µL/mins, and flow rate for binding analysis was run at 30 µL/mins. After injection of each peptide, the surface was regenerated with an injection of 10 mM NaOH. All sensorgrams were double referenced by subtracting the surface effect from the control flow […] and the buffer effect form the blank buffer. The kinetic values ka, kd, and KD were obtained using Biacore T200 Evaluation Software (GE healthcare) assuming the Langmuir 1:1 binding model.

[3] = tested on: CCND1, CDK4, HELLS, NF2, TP53, p21 mRNA; experiment: qRT-PCR of downstream mRNA targets of the MSI1-AGO2 complex under hypoxia; type: cell-based, human; conditions: peptide transfection in DBTRG-05MG cells, hypoxia versus normoxia
Protocol: In vitro binding assay was carried out with N-terminal biotinylated synthetic peptides (Table S3) based on our peptide array screening. The synthesized peptides (Thermo Fisher Scientific Inc., Waltham, MA, USA) were dissolved in 10% DMSO by 1 mg/mL and subjected to incubation with an equal amount of AGO2 recombinant protein (2 μg each) in T20 blocking solution (Thermo Fisher Scientific Inc., Waltham, MA, USA). After 16 h incubation, the peptides were pulled down with immobilized streptavidin (Pierce 21115, Thermo Fisher Scientific Inc., Waltham, MA, USA). The precipitated peptide/protein complex was subjected to immunoblotting with 6×His primary antibody (GeneTex Inc., Hsinchu, Taiwan) hybridization and detection. Peptide transfection was carried out with Proteojuice (Millipore 71281, Merck Co., Darmstadt, Germany) following the manufacturer’s instruction. For the in vivo compatible cell-penetrating peptide (CPP)-modified peptides, we tested two different CPPs at the C-terminal ends, including TAT (48–60) from HIV [55, 56, 57].
as §1

DBTRG-05MG cell line = experiment: Concentration-dependent cellular uptake (half-uptake concentration EC50); type: in vitro ADME, human; conditions: Figure 6A,B legend, fluorescein labeled peptides, ELISA reader
[4] = molecular target: T3, His-tagged recombinant AGO2; experiment: PepSpot peptide tiling array incubated with His-tagged AGO2; type: binding; conditions: 15-mer peptides on nitrocellulose, 2 μg His-AGO2 overnight, HRP anti-6×His
Protocol: To rapidly screen the putative binding hotspots along the C-terminus of MSI1, we mimicked the epitope screening method by dotting the synthetic short peptides on nitrocellulose membrane and incubated with purified AGO2 protein [49]. The C-terminus of MSI1 (200–362) was divided into 27 individual synthetic peptides with N-terminal amine attached on the nitrocellulose. Each peptide is 15 amino acids in length and has eight amino acids overlapping with the previous neighboring peptide (Table S1). The purchased PepSpot membrane (JPT peptide technologies, Berlin, Germany) was firstly rinsed in methanol for 5 min, followed by Tris buffer saline supplemented with 0.1% Tween-20 (TBS-T) washing thrice. The membrane was then blocked by Superblock T20 blocking buffer (Thermo Fisher Scientific Inc., Waltham, MA, USA) for 2 h and 2 μg His-tagged AGO2 recombinant protein was added for an overnight incubation. The membrane was washed thrice with TBS-T and incubated with horseradish peroxidase (HRP)-conjugated 6×His tag primary antibody (Genetex Inc., Hsinchu, Taiwan) for 4 h under 4 °C. Enhanced chemiluminescent reagent was used for further blotting.

MSI1/AGO2 interaction = molecular target: T4, MSI1/AGO2 interaction (Homo sapiens, UniProt Q9UKV8); experiment: Co-immunoprecipitation competition of MSI1/AGO2 complex in cells; type: cell-based; conditions: cells treated with 10 µM peptide, hypoxic condition
T4 construct: endogenous in cells
Text: as §1

DBTRG-05MG cells [5] = experiment: Degradation of 5′FAM-labeled peptides in cells; type: in vitro ADME, human; conditions: 5′FAM-labeled peptide, cells followed up to 6 h, fluorescence by ELISA reader, three independent experiments
DBTRG-05MG cells [6] = experiment: Time-lapse cellular uptake of 5′FAM-labeled peptides; type: in vitro ADME, human; conditions: 5′FAM-labeled peptide, time-lapse confocal and fluorescence by ELISA reader, n = 3 per time point

T3 sequence (Q9UKV8 whole entry): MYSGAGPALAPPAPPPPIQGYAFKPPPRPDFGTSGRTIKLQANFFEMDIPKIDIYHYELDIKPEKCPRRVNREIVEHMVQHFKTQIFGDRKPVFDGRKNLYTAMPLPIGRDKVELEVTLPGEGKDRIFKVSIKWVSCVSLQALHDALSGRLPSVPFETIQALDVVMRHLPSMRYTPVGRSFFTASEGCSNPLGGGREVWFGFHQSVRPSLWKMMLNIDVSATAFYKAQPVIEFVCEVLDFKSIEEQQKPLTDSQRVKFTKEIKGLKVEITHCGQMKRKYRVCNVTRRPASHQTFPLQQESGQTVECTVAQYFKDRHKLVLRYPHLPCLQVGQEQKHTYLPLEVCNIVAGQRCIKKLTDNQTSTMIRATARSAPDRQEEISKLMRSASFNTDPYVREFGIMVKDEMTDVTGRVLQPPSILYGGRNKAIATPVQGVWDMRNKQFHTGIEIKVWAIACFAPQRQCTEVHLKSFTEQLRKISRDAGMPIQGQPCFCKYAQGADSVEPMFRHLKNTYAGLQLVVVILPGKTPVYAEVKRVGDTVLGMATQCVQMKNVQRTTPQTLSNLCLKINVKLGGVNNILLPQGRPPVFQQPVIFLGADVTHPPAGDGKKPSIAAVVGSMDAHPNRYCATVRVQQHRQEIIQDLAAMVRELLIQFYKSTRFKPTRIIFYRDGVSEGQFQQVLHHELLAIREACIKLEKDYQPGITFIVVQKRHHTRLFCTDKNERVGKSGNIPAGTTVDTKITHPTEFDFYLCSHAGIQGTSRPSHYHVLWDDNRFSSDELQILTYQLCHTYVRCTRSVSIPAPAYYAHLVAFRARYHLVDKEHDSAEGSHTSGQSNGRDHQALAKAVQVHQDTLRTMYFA
T2 sequence (Q9UKV8 whole entry): as above
T1 sequence (Q9UKV8 whole entry): as above
T4 sequence (Q9UKV8 whole entry): as above

| Molecule | entry into cells (confocal microscopy) (endogenous AGO2) | kon [2] | koff [2] | effect of hypoxia-induced MSI1/AGO2 complex on downstream mRNAs (CCND1, CDK4, HELLS, NF2, TP53, p21) [3] | EC50 (DBTRG-05MG cell line) | binding to AGO2 on the peptide array (immunoblot) [4] | interference with MSI1/AGO2 binding complex formation (Co-IP immunoblot) (MSI1/AGO2 interaction) | time of significant degradation in the cells (change in 5′FAM fluorescence) (DBTRG-05MG cells [5]) | reconstituted luciferase luminescence versus non-treated or CP-treated cells [1] | also measured |
| --- | --- | --- | --- | --- | --- | --- | --- | --- | --- | --- |
| CC(C)C[C@H](NC(=O)[C@@H]1CCCN1C(=O)[C@@H](NC(=O)[C@H](CCCNC(=N)N)NC(=O)[C@H](CCC(=O)O)NC(=O)[C@@H](NC(=O)[C@H](CCCNC(=N)N)NC(=O)[C@H](Cc1ccccc1)NC(=O)[C@H](CCC(=O)O)NC(=O)[C@@H]1CCCN1C(=O)[C@H](Cc1ccccc1)NC(=O)[C@H](CCC(N)=O)NC(=O)[C@H](Cc1ccc(O)cc1)NC(=O)c1ccc2c(c1)C(=O)OC21c2ccc(O)cc2Oc2cc(O)ccc21)C(C)C)[C@@H](C)O)C(=O)N1CCC[C@H]1C(=O)N[C@@H](CO)C(=O)NCC(=O)N[C@@H](CCCNC(=N)N)C(=O)N[C@@H](CCCCN)C(=O)N[C@@H](CCCCN)C(=O)N[C@@H](CCCNC(=N)N)C(=O)N[C@@H](CCCNC(=N)N)C(=O)N[C@@H](CCC(N)=O)C(=O)N[C@@H](CCCNC(=N)N)C(=O)N[C@@H](CCCNC(=N)N)C(=O)N[C@@H](CCCNC(=N)N)C(=O)N1CCC[C@H]1C(=O)N1CCC[C@H]1C(=O)N[C@@H](CCC(N)=O)C(=O)O [5′FAM-Pep#11] (5FAM-YQFPEFRVERTPLPSGRKKRRQRRRPPQ-OH) | capable of entering the cells |  |  |  |  |  |  |  |  | subcellular co-localization with AGO2 (endogenous AGO2; confocal microscopy): co-localized with endogenous AGO2 in the cytosol |
| CC[C@H](C)[C@H](NC(=O)[C@H](CC(C)C)NC(=O)[C@@H]1CCCN1C(=O)CNC(=O)CNC(=O)[C@H](CC(C)C)NC(=O)[C@H](CO)NC(=O)[C@H](Cc1c[nH]cn1)NC(=O)c1ccc2c(c1)C(=O)OC21c2ccc(O)cc2Oc2cc(O)ccc21)C(=O)N[C@@H](C)C(=O)N[C@H](C(=O)N[C@@H](C)C(=O)N[C@@H](Cc1ccccc1)C(=O)N[C@H](C(=O)N[C@@H](CC(N)=O)C(=O)NCC(=O)NCC(=O)N[C@@H](CCCNC(=N)N)C(=O)N[C@@H](CCCCN)C(=O)N[C@@H](CCCCN)C(=O)N[C@@H](CCCNC(=N)N)C(=O)N[C@@H](CCCNC(=N)N)C(=O)N[C@@H](CCC(N)=O)C(=O)N[C@@H](CCCNC(=N)N)C(=O)N[C@@H](CCCNC(=N)N)C(=O)N[C@@H](CCCNC(=N)N)C(=O)N1CCC[C@H]1C(=O)N1CCC[C@H]1C(=O)N[C@@H](CCC(N)=O)C(=O)O)[C@@H](C)O)[C@@H](C)O [5′FAM-Pep#26] (5FAM-HSLGGPLIATAFTNGGRKKRRQRRRPPQ-OH) | capable of entering the cells |  |  |  |  |  |  |  |  |  |
| N.N.[Cl][Pt][Cl] [cisplatin, reference compound] |  |  |  |  |  |  |  |  |  | luciferase luminescence versus PBS-treated group ([1]; cells overexpressing M-NGluc and A-CGluc, 30 µM cisplatin): significantly greater luminescence |
| GSHPWTMAPPPGSTPGRKKRRQRRRPPQ [CP, reference compound] |  | 42500 M⁻¹ s⁻¹ | 4.53 s⁻¹ |  |  |  |  |  |  |  |
| HSLGGPLIATAFTNGGRKKRRQRRRPPQ [Pep#26] |  | 3160 M⁻¹ s⁻¹ | 0.00213 s⁻¹ | reversed | 9 µM | strongest binding peptides | completely abolished | within the first half an hour | significantly lower |  |
| YQFPEFRVERTPLPSGRKKRRQRRRPPQ [Pep#11] |  | 32600 M⁻¹ s⁻¹ | 0.0168 s⁻¹ | reversed | 9.1 µM | strongest binding peptides | completely abolished | within the first half an hour | significantly lower | time of significant increases in cellular uptake (DBTRG-05MG cells [6]): within the first hour |

From publication PMC8833744, “Strategic Decoy Peptides Interfere with MSI1/AGO2 Interaction to Elicit Tumor Suppression Effects” (Cancers, 2022)
